Test results from PubChem BioAssay (NCI).
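Step 1: Grow cells in 96-well plates. Step 2: Expose to compound for 48 hours at 5 concentrations. Step 3: Interpolate endpoints linearly; if unreached, use highest concentration. GI50 marks 50% less growth. Definition used: TGI = concentration required for complete inhibition of growth.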

Tests used:
Assay in all cases: growth of human tumour cells (NCI), 48 h
M14 melanoma = system: M14 melanoma
EKVX NSCLC = system: EKVX NSCLC
NCI-H522 lung = system: NCI-H522 lung
SNB-75 CNS = system: SNB-75 CNS
ACHN renal = system: ACHN renal
MDA-MB-435 = system: MDA-MB-435
HT29 colon = system: HT29 colon
DU-145 prostate = system: DU-145 prostate
UACC-62 melanoma = system: UACC-62 melanoma
SF-268 CNS = system: SF-268 CNS
CAKI-1 renal = system: CAKI-1 renal
HS 578T breast = system: HS 578T breast
CCRF-CEM leukemia = system: CCRF-CEM leukemia
SNB-19 CNS = system: SNB-19 CNS
OVCAR-5 ovarian = system: OVCAR-5 ovarian
KM12 colon = system: KM12 colon
SF-539 CNS = system: SF-539 CNS
UACC-257 melanoma = system: UACC-257 melanoma
OVCAR-8 ovarian = system: OVCAR-8 ovarian
MDA-MB-231 breast = system: MDA-MB-231 breast
U251 CNS = system: U251 CNS
HCT-116 colon = system: HCT-116 colon
UO-31 renal = system: UO-31 renal
IGROV1 ovarian = system: IGROV1 ovarian
OVCAR-3 ovarian = system: OVCAR-3 ovarian
HOP-62 NSCLC = system: HOP-62 NSCLC
HCC-2998 colon = system: HCC-2998 colon
BT-549 breast = system: BT-549 breast
MCF7 breast = system: MCF7 breast
NCI/ADR-RES ovarian = system: NCI/ADR-RES ovarian
TK-10 renal = system: TK-10 renal
HL-60(TB) leukemia = system: HL-60(TB) leukemia
786-0 renal = system: 786-0 renal
A549 NSCLC = system: A549 NSCLC
PC-3 prostate = system: PC-3 prostate
SK-MEL-2 melanoma = system: SK-MEL-2 melanoma
SK-MEL-28 melanoma = system: SK-MEL-28 melanoma
MOLT-4 leukemia = system: MOLT-4 leukemia
SK-OV-3 ovarian = system: SK-OV-3 ovarian
SW-620 colon = system: SW-620 colon
LOX IMVI melanoma = system: LOX IMVI melanoma
MDA-N = system: MDA-N
NCI-H23 lung = system: NCI-H23 lung
SN12C renal = system: SN12C renal
OVCAR-4 ovarian = system: OVCAR-4 ovarian
NCI-H460 lung = system: NCI-H460 lung
SF-295 CNS = system: SF-295 CNS
RXF 393 renal = system: RXF 393 renal
SK-MEL-5 melanoma = system: SK-MEL-5 melanoma
COLO 205 colon = system: COLO 205 colon
HOP-92 NSCLC = system: HOP-92 NSCLC
HCT-15 colon = system: HCT-15 colon
MALME-3M melanoma = system: MALME-3M melanoma
NCI-H226 lung = system: NCI-H226 lung
RPMI-8226 leukemia = system: RPMI-8226 leukemia
SR leukemia = system: SR leukemia
K-562 leukemia = system: K-562 leukemia
T-47D breast = system: T-47D breast
A498 renal = system: A498 renal

Cc1ccc(NC(=O)/C(CC2N=c3c(ccc4c(O)c5ccccc5c(O)c34)=NC2O)=N/NC(C)(C)C)cc1 (configuration not stated)
TGI (M14 melanoma): 73.6 µM
TGI (EKVX NSCLC): > 100 µM
TGI (NCI-H522 lung): 97.2 µM
TGI (SNB-75 CNS): 91.1 µM
TGI (ACHN renal): 38.6 µM
TGI (MDA-MB-435): > 100 µM
TGI (HT29 colon): 43 µM
TGI (DU-145 prostate): 39.5 µM
TGI (UACC-62 melanoma): 45.8 µM
TGI (SF-268 CNS): 59 µM
TGI (CAKI-1 renal): 25.6 µM
TGI (HS 578T breast): 54.8 µM
TGI (CCRF-CEM leukemia): 7.26 µM
TGI (SNB-19 CNS): > 100 µM
TGI (OVCAR-5 ovarian): > 100 µM
TGI (KM12 colon): > 100 µM
TGI (SF-539 CNS): 25.9 µM
TGI (UACC-257 melanoma): > 100 µM
TGI (OVCAR-8 ovarian): 21.9 µM
TGI (MDA-MB-231 breast): 18.8 µM
TGI (U251 CNS): 63.4 µM
TGI (HCT-116 colon): 29.6 µM
TGI (UO-31 renal): 17.5 µM
TGI (IGROV1 ovarian): 83.5 µM
TGI (OVCAR-3 ovarian): 51.7 µM
TGI (HOP-62 NSCLC): 43.9 µM
TGI (HCC-2998 colon): 78.5 µM
TGI (BT-549 breast): > 100 µM
TGI (MCF7 breast): > 100 µM
TGI (NCI/ADR-RES ovarian): 20.2 µM
TGI (TK-10 renal): 39.6 µM
TGI (HL-60(TB) leukemia): 28.1 µM
TGI (786-0 renal): 17.5 µM
TGI (A549 NSCLC): > 100 µM
TGI (PC-3 prostate): 78.1 µM
TGI (SK-MEL-2 melanoma): 81.9 µM
TGI (SK-MEL-28 melanoma): 39.3 µM
TGI (MOLT-4 leukemia): 22.6 µM
TGI (SK-OV-3 ovarian): 33.6 µM
TGI (SW-620 colon): 70.2 µM
TGI (LOX IMVI melanoma): 25.3 µM
TGI (MDA-N): > 100 µM
TGI (NCI-H23 lung): 83.9 µM
TGI (SN12C renal): 44.8 µM
TGI (OVCAR-4 ovarian): 45.1 µM
TGI (NCI-H460 lung): 26.4 µM
TGI (SF-295 CNS): > 100 µM
TGI (RXF 393 renal): 44.2 µM
TGI (SK-MEL-5 melanoma): 24.2 µM
TGI (COLO 205 colon): > 100 µM
TGI (HOP-92 NSCLC): 56.5 µM
TGI (HCT-15 colon): 44.5 µM

O=C1c2ccccc2-c2nc(-c3ccncc3)cc3c2c1nc1ccccc13
TGI (M14 melanoma): 17 µM
TGI (MALME-3M melanoma): 22.4 µM
TGI (EKVX NSCLC): > 100 µM
TGI (NCI-H522 lung): 30.7 µM
TGI (SNB-75 CNS): > 100 µM
TGI (ACHN renal): > 100 µM
TGI (MDA-MB-435): 29.5 µM
TGI (HT29 colon): > 100 µM
TGI (DU-145 prostate): 32.3 µM
TGI (UACC-62 melanoma): 26.2 µM
TGI (NCI-H226 lung): > 100 µM
TGI (CAKI-1 renal): > 100 µM
TGI (CCRF-CEM leukemia): > 100 µM
TGI (SNB-19 CNS): > 100 µM
TGI (OVCAR-5 ovarian): > 100 µM
TGI (KM12 colon): 47.7 µM
TGI (SF-539 CNS): > 100 µM
TGI (UACC-257 melanoma): 47.3 µM
TGI (OVCAR-8 ovarian): > 100 µM
TGI (MDA-MB-231 breast): > 100 µM
TGI (U251 CNS): 33.2 µM
TGI (HCT-116 colon): > 100 µM
TGI (UO-31 renal): > 100 µM
TGI (IGROV1 ovarian): 52.8 µM
TGI (OVCAR-3 ovarian): 12.8 µM
TGI (HOP-62 NSCLC): 25.3 µM
TGI (HCC-2998 colon): 42.9 µM
TGI (BT-549 breast): > 100 µM
TGI (MCF7 breast): > 100 µM
TGI (RPMI-8226 leukemia): > 100 µM
TGI (NCI/ADR-RES ovarian): > 100 µM
TGI (TK-10 renal): > 100 µM
TGI (SR leukemia): 44.8 µM
TGI (HL-60(TB) leukemia): 34.5 µM
TGI (786-0 renal): > 100 µM
TGI (A549 NSCLC): 40.2 µM
TGI (PC-3 prostate): > 100 µM
TGI (SK-MEL-2 melanoma): 26.3 µM
TGI (K-562 leukemia): > 100 µM
TGI (SK-MEL-28 melanoma): > 100 µM
TGI (MOLT-4 leukemia): 44.4 µM
TGI (SK-OV-3 ovarian): > 100 µM
TGI (SW-620 colon): > 100 µM
TGI (LOX IMVI melanoma): > 100 µM
TGI (MDA-N): 41.9 µM
TGI (NCI-H23 lung): 41.3 µM
TGI (SN12C renal): > 100 µM
TGI (OVCAR-4 ovarian): > 100 µM
TGI (NCI-H460 lung): 90.9 µM
TGI (SF-295 CNS): 29.5 µM
TGI (COLO 205 colon): 62.3 µM
TGI (HOP-92 NSCLC): > 100 µM
TGI (HCT-15 colon): > 100 µM

C[C@]1(O)CC[C@H]2[C@@H]3CCc4cc(O)ccc4[C@H]3CC[C@@]21C
TGI (M14 melanoma): 62.4 µM
TGI (MALME-3M melanoma): 0.948 µM
TGI (EKVX NSCLC): 9.08 µM
TGI (NCI-H522 lung): 5.08 µM
TGI (SNB-75 CNS): > 100 µM
TGI (ACHN renal): > 100 µM
TGI (MDA-MB-435): 0.761 µM
TGI (HT29 colon): > 100 µM
GI50 (DU-145 prostate): 1.98 µM
TGI (DU-145 prostate): 8.25 µM
GI50 (UACC-62 melanoma): 1.48 µM
TGI (UACC-62 melanoma): 37.5 µM
TGI (SF-268 CNS): 68.3 µM
TGI (T-47D breast): > 100 µM
TGI (CAKI-1 renal): > 100 µM
TGI (HS 578T breast): 4.98 µM
TGI (CCRF-CEM leukemia): 80.1 µM
TGI (SNB-19 CNS): > 100 µM
TGI (OVCAR-5 ovarian): > 100 µM
TGI (KM12 colon): 12.1 µM
TGI (SF-539 CNS): 2.27 µM
TGI (UACC-257 melanoma): 77.1 µM
TGI (OVCAR-8 ovarian): 64.8 µM
TGI (MDA-MB-231 breast): 88 µM
TGI (U251 CNS): > 100 µM
GI50 (HCT-116 colon): 0.703 µM
TGI (HCT-116 colon): > 100 µM
TGI (UO-31 renal): 61.2 µM
TGI (IGROV1 ovarian): 27.8 µM
GI50 (OVCAR-3 ovarian): 0.663 µM
TGI (OVCAR-3 ovarian): 42.9 µM
GI50 (HOP-62 NSCLC): 18.4 µM
TGI (HOP-62 NSCLC): > 100 µM
TGI (HCC-2998 colon): 0.937 µM
TGI (MCF7 breast): > 100 µM
TGI (RPMI-8226 leukemia): 4.81 µM
TGI (NCI/ADR-RES ovarian): > 100 µM
TGI (TK-10 renal): 7.51 µM
TGI (SR leukemia): 0.668 µM
TGI (A498 renal): 9.61 µM
TGI (HL-60(TB) leukemia): 3.49 µM
TGI (786-0 renal): > 100 µM
TGI (A549 NSCLC): 77.6 µM
TGI (PC-3 prostate): > 100 µM
TGI (SK-MEL-2 melanoma): > 100 µM
TGI (SK-MEL-28 melanoma): > 100 µM
TGI (MOLT-4 leukemia): > 100 µM
TGI (SK-OV-3 ovarian): > 100 µM
TGI (SW-620 colon): > 100 µM
TGI (LOX IMVI melanoma): 72.5 µM
TGI (MDA-N): 0.651 µM
TGI (NCI-H23 lung): > 100 µM
GI50 (SN12C renal): 10.2 µM
TGI (SN12C renal): > 100 µM
TGI (OVCAR-4 ovarian): > 100 µM
TGI (NCI-H460 lung): > 100 µM
TGI (SF-295 CNS): 13 µM
TGI (RXF 393 renal): 4.05 µM
TGI (SK-MEL-5 melanoma): 11.7 µM
TGI (COLO 205 colon): > 100 µM
TGI (HOP-92 NSCLC): 67.8 µM
TGI (HCT-15 colon): > 100 µM
